“And” between values parts separate entries of the source, which are not always exact repeats. Identical values can stand only once.
Tests used:
[1] = target: T1, bacterial NAD synthetase enzyme (Bacillus subtilis, UniProt P08164); experiment: biochemical; format: biochemical
T1 sequence (P08164 2-272 limits assumed): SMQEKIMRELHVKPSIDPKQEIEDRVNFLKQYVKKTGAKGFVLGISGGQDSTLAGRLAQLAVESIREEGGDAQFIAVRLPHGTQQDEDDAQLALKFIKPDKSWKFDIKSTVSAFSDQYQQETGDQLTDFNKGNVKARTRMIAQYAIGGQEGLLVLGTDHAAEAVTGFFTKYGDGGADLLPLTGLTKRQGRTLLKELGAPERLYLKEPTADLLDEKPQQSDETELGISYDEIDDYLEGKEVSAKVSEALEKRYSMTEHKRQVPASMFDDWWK

[2] = system: Staphylococcus epidermitis; experiment: Bacterial growth inhibition screen in LB media (absorbance 595 nm), percent inhibition; settings: S. epidermitis
[3] = compound at 0.2 mM (Table 312A)

| SMILES | % Inhibition [1, 3] [%] | % Inhibition ([2]; concentration screened 100 uM) [%] | % Inhibition ([2]; concentration screened 10 uM) | % Inhibition ([1]; compound at 0.1 mM (Table 314)) [%] | IC50 ([1]; lead compounds (Table 318A), read-out: IC 50) [µM] |
| --- | --- | --- | --- | --- | --- |
| O=C(c1ccccc1)c1ccc2[nH]c(CCCCC[n+]3ccccc3)cc2c1 [Compound 356] | 1.95 | 19.29 | – | – | – |
| CC(C)c1ccc2[nH]c(CCCCOC(=O)C(c3ccccc3)c3ccccc3)cc2c1 [Compound 663] | 15.43 | 44.28 | – | – | – |
| O=C(O)c1ccc2[nH]c(CCCCC[n+]3ccccc3)cc2c1 [Compound 386] | 28.75 | 96.36 | – | – | – |
| Fc1cc(F)c2[nH]c(CCC[n+]3ccccc3)cc2c1 [Compound 300] | 11.79 | – | 6.20% | – | – |
| COc1ccc2c(ccn2CCCCCCOC(=O)Cc2ccc([N+](C)(C)C)cc2)c1 [Compound 742] | 28.20 | – | 2.13% | – | – |
| O=C(OCCCCc1cc2cc(C(F)(F)F)ccc2[nH]1)c1cccnc1 [Compound 654] | 2.11 | – | 25.20% | – | – |
| Fc1ccc2[nH]c(CCCCC[n+]3cccc4ccccc43)cc2c1 [Compound 452] | 20.04 | – | 8.22% | – | – |
| O=C(c1ccccc1)c1ccc2[nH]c(CCCCCCCOC(=O)C(c3ccccc3)c3ccccc3)cc2c1 [Compound 676] | – | – | 5.52% | 1.46 | – |
| c1ccc2c[n+](CCCCCCCCc3cc4ccccc4[nH]3)ccc2c1 [Compound 503] | 37.04 | – | 7.82% | – | – |
| CC(C)c1ccc2[nH]c(CCCCOC(=O)c3ccccc3-c3ccccc3)cc2c1 [Compound 630] | 10.72 | 13.69 | – | – | – |
| CN(C)c1ccc(C(=O)OCCCCCCCCc2cc3cc(C(F)(F)F)ccc3[nH]2)cc1 [Compound 611] | 15.13 | 9.67 | – | – | – |
| CCCCc1ccc2[nH]c(CCC[n+]3ccccc3)cc2c1 [Compound 312] | – | – | 4.60% | 10.25 | – |
| COC(=O)c1ccc2[nH]c(CCCCC[n+]3ccccc3)cc2c1 [Compound 380] | 10.09 | 97.64 | – | – | – |
| COc1ccc2[nH]c(CCCCC[n+]3cccc4ccccc43)cc2c1 [Compound 482] | 17.07 | – | 4.39% | – | – |
| O=[N+]([O-])c1ccc2[nH]c(CCCCCCC[n+]3ccc4ccccc4c3)cc2c1 [Compound 550] | 28.18 | – | 4.40% | – | – |
| COc1ccc2[nH]c(CCCC[n+]3ccccc3)cc2c1 [Compound 373] | 14.13 | – | 1.53% | 7.72 | – |
| COC(=O)c1ccc2[nH]c(CCCCCCCC[n+]3ccc4ccccc4c3)cc2c1 [Compound 599] | 19.31 | 44.14 | – | – | – |
| Fc1ccc2[nH]c(CCC[n+]3ccccc3)cc2c1 [Compound 342] | 11.92 | – | 14.97% | – | – |
| c1ccc(-c2ccc3[nH]c(CCCCCC[n+]4ccccc4)cc3c2)cc1 [Compound 327] | – | 100.00 | – | 55.31 | – |
| CCCCc1ccc2[nH]c(CCCCC[n+]3ccc4ccccc4c3)cc2c1 [Compound 530] | 20.52 | 27.36 | – | – | – |
| Fc1cc(F)c2[nH]c(CCCCCC[n+]3ccc4ccccc4c3)cc2c1 [Compound 519] | 16.27 | – | 11.35% | – | – |

| SMILES | % Inhibition [1, 3] [%] | % Inhibition ([2]; concentration screened 100 uM) [%] | % Inhibition ([2]; concentration screened 10 uM) | % Inhibition ([1]; compound at 0.1 mM (Table 314)) [%] | IC50 ([1]; lead compounds (Table 318A), read-out: IC 50) [µM] |
| --- | --- | --- | --- | --- | --- |
| O=C(OCCCCCCCCc1cc2cc(Oc3ccccc3)ccc2[nH]1)C(c1ccccc1)c1ccccc1 [Compound 659] | 25.47 | 20.41 | – | – | – |
| CN(C)c1ccc(CC(=O)OCCCCCCn2ccc3cc([N+](=O)[O-])ccc32)cc1 [Compound 850] | – | – | 56.50% | 87.46 | 80 |
| O=[N+]([O-])c1cc([N+](=O)[O-])c2[nH]c(CCCCCC[n+]3cccc4ccccc43)cc2c1 [Compound 417] | 14.59 | – | 7.80% | – | – |
| O=C(c1ccccc1)c1ccc2[nH]c(CCCC[n+]3ccccc3)cc2c1 [Compound 355] | 2.08 | – | 5.78% | 3.31 | – |
| O=C(OCCCCCCCc1cc2cc(Oc3ccccc3)ccc2[nH]1)c1ccncc1 [Compound 700] | 2.54 | – | 3.61% | – | – |
| COc1ccc2[nH]c(CCCCC[n+]3ccc4ccccc4c3)cc2c1 [Compound 590] | 28.82 | 94.43 | – | – | – |
| O=[N+]([O-])c1ccc2c(ccn2CCCCCCO)c1 [Compound 862, 6-[N-(5-nitroindolyl)]hexan-1-ol] | 9.05 | – | 48.29% | – | – |
| O=[N+]([O-])c1cc([N+](=O)[O-])c2[nH]c(CCCC[n+]3cccc4ccccc43)cc2c1 [Compound 415] | 7.72 | – | 1.95% | – | – |
| COC(=O)C=Cc1cn(CCCCCCC[n+]2cccc(C(=O)OC)c2)c2ccccc12 [Compound 269] | – | – | 46.12% | 51.12 | – |
| O=C(OCCCCCCCCc1cc2cc(C(F)(F)F)ccc2[nH]1)C(c1ccccc1)c1ccccc1 [Compound 653] | 20.59 | 8.42 | – | – | – |
| CN(C)c1ccc(C(=O)OCCCCCCCCc2cc3cc(Oc4ccccc4)ccc3[nH]2)cc1 [Compound 620] | 19.03 | 12.69 | – | – | – |
| c1ccc(C(c2ccccc2)(c2ccccc2)c2ccc3[nH]c(CCC[n+]4cccc5ccccc54)cc3c2)cc1 [Compound 444] | – | – | 5.85% | 8.55 | – |
| O=[N+]([O-])c1ccc2[nH]c(CCCC[n+]3cccc4ccccc43)cc2c1 [Compound 439] | – | – | 30.57% | 2.57 | – |
| CN(C)c1cccc(C(=O)OCCCCCCCCc2cc3cc(Oc4ccccc4)ccc3[nH]2)c1 [Compound 617] | 2.02 | 19.54 | – | – | – |
| O=[N+]([O-])c1ccc2[nH]c(CCCCC[n+]3cccc4ccccc43)cc2c1 [Compound 440] | 12.69 | – | 8.77% | – | – |
| Fc1ccc2[nH]c(CCCCCCCC[n+]3cccc4ccccc43)cc2c1 [Compound 455] | 2.69 | – | 6.55% | – | – |
| Fc1ccc2[nH]c(CCCCCCC[n+]3ccc4ccccc4c3)cc2c1 [Compound 562] | 46.44 | – | 9.44% | – | – |
| O=C(c1ccccc1)c1ccc2[nH]c(CCC[n+]3cccc4ccccc43)cc2c1 [Compound 462] | 3.84 | – | 3.13% | – | – |
| COC(=O)c1ccc2[nH]c(CCCCCCCC[n+]3cccc4ccccc43)cc2c1 [Compound 491] | 8.24 | – | 11.14% | – | – |
| c1ccc(C(c2ccccc2)(c2ccccc2)c2ccc3[nH]c(CCCCC[n+]4cccc5ccccc54)cc3c2)cc1 [Compound 446] | 13.78 | – | 3.69% | – | – |
| O=[N+]([O-])c1cc([N+](=O)[O-])c2[nH]c(CCCCCC[n+]3ccccc3)cc2c1 [Compound 309] | – | 99.07 | – | 41.47 | – |

| SMILES | % Inhibition [1, 3] [%] | % Inhibition ([2]; concentration screened 100 uM) [%] | % Inhibition ([2]; concentration screened 10 uM) | % Inhibition ([1]; compound at 0.1 mM (Table 314)) [%] | IC50 ([1]; lead compounds (Table 318A), read-out: IC 50) [µM] |
| --- | --- | --- | --- | --- | --- |
| Cc1ccc2[nH]c(CCCCCC[n+]3cccc4ccccc43)cc2c1 [Compound 405] | 6.07 | – | 44.01% | – | – |
| c1ccc(-c2ccc3[nH]c(CCCCC[n+]4ccc5ccccc5c4)cc3c2)cc1 [Compound 542] | 15.89 | 96.93 | – | – | – |
| CC(=O)c1ccc2[nH]c(CCCC[n+]3ccccc3)cc2c1 [Compound 367] | 9.72 | – | 5.64% and 5.22% | – | – |
| O=[N+]([O-])c1ccc2[nH]c(CCCCCC[n+]3ccccc3)cc2c1 [Compound 333] | – | 100.00 | – | 26.29 | – |
| CC(C)c1ccc2[nH]c(CCCCC[n+]3cccc4ccccc43)cc2c1 [Compound 428] | 26.53 | – | 5.85% | – | – |
| CC(=O)c1ccc2[nH]c(CCCCCCCCOC(=O)C(c3ccccc3)c3ccccc3)cc2c1 [Compound 671] | – | 5.72 | – | – | – |
| CC(=O)c1ccc2[nH]c(CCCCOC(=O)c3ccccc3-c3ccccc3)cc2c1 [Compound 639] | – | 7.41 | – | – | – |
| CN(C)c1ccc(C(=O)OCCCCc2cc3cc(Oc4ccccc4)ccc3[nH]2)cc1 [Compound 618] | – | 11.06 | – | – | – |
| O=C(OCCCCCCCCc1cc2cc(Oc3ccccc3)ccc2[nH]1)c1ccncc1 [Compound 701] | – | – | 3.88% | – | – |
| O=C(OCCCCCCCc1cc2cc(C(F)(F)F)ccc2[nH]1)c1cccnc1 [Compound 655] | – | – | 11.51% | – | – |
| c1ccc(Oc2ccc3[nH]c(CCCCCC[n+]4cccc5ccccc54)cc3c2)cc1 [Compound 459] | – | – | 16.09% | – | – |
| O=C(CCc1cccnc1)OCCCCCCCCc1cc2cc([N+](=O)[O-])ccc2[nH]1 [Compound 728] | – | – | 13.28% | – | – |
| CN(C)c1ccc(C(=O)OCCCCCCCCc2cc3cc(C(=O)c4ccccc4)ccc3[nH]2)cc1 [Compound 647] | – | 13.38 | – | – | – |
| O=C(OCCCCCCCc1cc2cc(Oc3ccccc3)ccc2[nH]1)C(c1ccccc1)c1ccccc1 [Compound 658] | – | – | 1.43% | – | – |
| O=C(OCCCCc1cc2cc(Oc3ccccc3)ccc2[nH]1)c1cccnc1 [Compound 684] | – | – | 10.83% | – | – |
| c1ccc(Oc2ccc3[nH]c(CCC[n+]4cccc5ccccc54)cc3c2)cc1 [Compound 456] | – | – | 3.69% | – | – |
| CC(C)c1ccc2[nH]c(CCCCCCCCOC(=O)c3ccccc3-c3ccccc3)cc2c1 [Compound 632] | – | 22.42 | – | – | – |
| c1ccc(Oc2ccc3[nH]c(CCCCC[n+]4ccccc4)cc3c2)cc1 [Compound 350] | – | – | 7.59% | – | – |
| CN(C)c1cccc(C(=O)OCCCCc2cc3cc(C(=O)c4ccccc4)ccc3[nH]2)c1 [Compound 642] | – | 8.86 | – | – | – |
